The values that follow come from PubChem BioAssay (NCI).

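How tested: cells in 96-well plates exposed to compound for 48 hours at five concentrations. At the GI50, growth is halved. The concentration for full growth arrest is given as TGI.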 Some results are limits rather than exact numbers.

Common to all, as to test: DTP human tumour cell line panel, 48 h
For experiment [1], the system named is CCRF-CEM leukemia.
Experiment [2] relates to OVCAR-8 ovarian.
Experiment [3] relates to U251 CNS.
Experiment [4] concerns OVCAR-3 ovarian.
Experiment [5] has as its system NCI-H522 lung.
Experiment [6] deals with HT29 colon.
Experiment [7] concerns UACC-257 melanoma.
Experiment [8] deals with SF-268 CNS.
Experiment [9] concerns NCI-H460 lung.
Experiment [10] has as its system K-562 leukemia.

Turning to `CCCCCCCCCCCCC(SCCNC(=O)CCNC(=O)C(O)C(C)(C)COP(=O)(O)OP(=O)(O)OCC1OC(n2cnc3c(N)ncnc32)C(O)C1OP(=O)(O)O)C(=O)NCC(N)=O` (stereo not drawn), the TGI in experiment [1], in experiment [2], in experiment [3], in [4], in [5] and in experiment [6] was > 100 µM each time. Further, the concentration for total growth inhibition (TGI) in experiment [7], in experiment [8] and in [9] was > 100 µM each time.
Turning to `Cn1nnnc1[N-]Cc1ccccc1.[Au+].c1ccc([PH+](c2ccccc2)c2ccccc2)cc1`, the GI50 in [1] was 0.752 µM; in experiment [2], 3.13 µM; in experiment [3], 3.41 µM; in experiment [4], 2.47 µM; in [6], 5.02 µM; in experiment [7], 2.01 µM. Further, the GI50 in experiment [8] is 3.45 µM; in experiment [9], 19.1 µM. Further, the TGI in experiment [1] worked out at 3.95 µM; in [2], 10.1 µM; in experiment [3], 11.8 µM; in [4], 5.2 µM; in experiment [6], 13.3 µM; in experiment [7] it was 7.78 µM. For the same compound, the TGI in [8] came to 14 µM; in experiment [9] it was 65.7 µM.
Regarding `C=C(CNCCO)[C@@H]1CC[C@]2(CO)CC[C@]3(C)[C@H](CC[C@@H]4[C@@]5(C)CCC(NCCc6ccc(O)cc6)C(C)(C)[C@@H]5CC[C@]43C)[C@@H]12` (stereo partly drawn), the GI50 in experiment [1] is 0.5 µM; in experiment [2], 1.46 µM; in experiment [3] it was 0.278 µM; in experiment [4], 1.82 µM; in [5] it was 1.64 µM; in experiment [6] it was 0.263 µM. Moreover, the GI50 in [7] is 1.7 µM; in experiment [8] it was 1.56 µM; in [9], 1.18 µM. Further, the concentration for total growth inhibition (TGI) in experiment [1] came to 2.68 µM; in [2], 2.8 µM; in experiment [3] it was 0.717 µM; in [4] it was 3.73 µM; in [5] it was 3.13 µM; in [6] it was 0.763 µM. For the same compound, the results for the TGI in [7], in [8] and in [9] were 3.08 µM, 3.22 µM and 2.63 µM, respectively.
Consider `Cn1cc(NC(=O)c2cc(NC(=O)CCCCCC(=O)Nc3cc(C(=O)Nc4cc(C(=O)NCCC(=N)N)n(C)c4)n(C)c3)cn2C)cc1C(=O)NCCC(=N)N`, for which the TGI in experiment [1], in experiment [2], in [3], in experiment [4], in [6] and in experiment [10] was > 100 µM throughout. For the same compound, the TGI in [7], in [8] and in experiment [9] was > 100 µM throughout.
As for `OC1CCC(C2C3CCCCC3C3CCCCC3C2C2CCC(O)CC2)CC1` (stereo not drawn), the concentration for total growth inhibition (TGI) is 20.4 µM in experiment [2]; 14 µM in [3]; > 100 µM in experiment [4]; 6.37 µM in [5]; 3.96 µM in experiment [6]; > 100 µM in experiment [10]. In addition, the TGI in experiment [7] is 33.4 µM; in [8], 14.5 µM; in experiment [9], 10.2 µM.
Consider `N#CC1C(N)=NNC1c1ccc(-c2ccc(-c3nc4ccccc4o3)cc2)o1` (stereo not drawn), for which the GI50 in experiment [2] was 15.3 µM; in experiment [3] it was 28.4 µM; in experiment [4], 2.12 µM; in [5], 53.4 µM; in experiment [10], 64.6 µM; in experiment [7], 23.1 µM. Besides, the values for the GI50 in experiment [8] and in experiment [9] were 20 µM and 23.8 µM, respectively. Moreover, the TGI was 88 µM in [2]; > 100 µM in experiment [3]; 13.2 µM in experiment [4]; > 100 µM in experiment [5]; > 100 µM in experiment [10]; > 100 µM in experiment [7]. For the same compound, the TGI is 51.7 µM in [8] and > 100 µM in experiment [9].
Consider `O=C1c2cccc3cc([N+](=O)[O-])cc(c23)C(=O)N1CCCN1CCN(CCCN2C(=O)c3cccc4cc([N+](=O)[O-])cc(c34)C2=O)CC1`, for which the TGI is > 100 µM in experiment [1]; > 100 µM in experiment [2]; 19.3 µM in experiment [3]; 4.81 µM in experiment [4]; > 100 µM in experiment [6]; > 100 µM in experiment [10]. Also, the TGI was 8.97 µM in experiment [7] and > 100 µM in [9].
Turning to `CC(C)(C)N=CN1CCC(C(c2ccccc2)c2ccccc2)CC1`, the TGI in experiment [2] is > 100 µM; in experiment [3], > 100 µM; in experiment [4], > 100 µM; in [6], 56.5 µM; in experiment [10], > 100 µM; in experiment [7], > 100 µM. Also, the total growth inhibition concentration (TGI) in experiment [8] and in [9] was > 100 µM in each case.
In the case of `CCOC(=O)c1c2ccc(/C=C/C(=O)OC)ccc-2c(C(=O)OCC)c1N`, the total growth inhibition concentration (TGI) in [1], in experiment [4], in [5], in [6], in experiment [10] and in experiment [7] was > 100 µM each time. The TGI was 9.68 µM in experiment [8] and > 100 µM in experiment [9].
In the case of `COc1cccc2c(=O)c3c(sc12)c(NCCCN)nc1ccccc13`, the GI50 in experiment [1] is 1.91 µM; in [4] it was 1.41 µM; in experiment [5] it was 1.81 µM; in experiment [6] it was 1.41 µM; in experiment [7] it was 2 µM; in experiment [8], 1.48 µM. Further, in [9], the GI50 is 0.745 µM. Further, the TGI turned out to be 4.86 µM in experiment [1]; 2.91 µM in experiment [4]; 3.65 µM in experiment [5]; 2.99 µM in [6]; 4.17 µM in experiment [7]; 3.32 µM in [8]. Also, the TGI in experiment [9] stood at 2.23 µM.
With `CCN(CC)C(=S)SSC1CCCCC1`, the GI50 in [1] was 5.72 µM; in experiment [2], 15.8 µM; in [3], 14.2 µM; in experiment [5], 2.91 µM; in [6], 15.3 µM; in [10] it was 11.3 µM. For the same compound, the figures for the GI50 in [7], in [8] and in experiment [9] were 22.5 µM, 23.1 µM and 18.3 µM, respectively. The total growth inhibition concentration (TGI) was 58.6 µM in experiment [1]; 34.9 µM in [2]; 29.1 µM in experiment [3]; 12.7 µM in experiment [5]; 34.8 µM in experiment [6]; 38.8 µM in experiment [10]. The TGI in experiment [7] was determined as 65 µM; in [8], 60.9 µM; in experiment [9], 52.7 µM.
